Test results taken from patent US8334366B1, “Mutant lycotoxin-1 peptide sequences for insecticidal and cell membrane altering properties” (The United States of America, as represented by the …, priority 2009, dated 2012).

Tests used:
[1] = system: fall armyworm (Spodoptera frugiperda) larvae; assay: Initial screen: lyophilized yeast cultures expressing lycotoxin-1 / NNR mutants mixed with insect diet, armyworm larvae assay; details: lyophilized yeast culture in pYES2-DEST52/INVSc1 mixed with rehydrated insect diet, oral, 20 newly hatched larvae
[2] = system: fall armyworm (Spodoptera frugiperda) larvae; assay: Lethality of single INVSc1-XI-Lyt-1 yeast strain isolates expressing Lyt-1 toxin variants on xylose plates to fall armyworm larvae; assay type: in vivo; details: for relative mortality compared with mutants C3 and A6 (frequency analysis) / mortality compared pairwise (C6 vs B9; A6 vs C3), frequency analysis: SAS Proc Freq, data adjusted for colony size, P<0.05; for relative mortality compared with mutants C3 and A6 (frequency analysis): 20-insect sample; for state of armyworms on plates containing cultures expressing variants: compared with INVSc1-XI control plate; for Day 1 (% killed) / Day 2 (% killed): single isolates grown 3 days on CM xylose URA/TRP plates, 4 plates averaged, 20 larvae/plate, adjusted for colony size
Procedure: Samples of the transformation reactions from each of the multiplex wells were recovered on 86×128 mm rectangular CM glucose URA/TRP-selective plates for 2 days at 30° C. and diluted 10.000-fold in sterile water; then 200 μl was spotted onto the respective CM xylose URA/TRP-selective plates and allowed to grow for 3 days to generate a yeast growth area (spot) expressing toxins. The size of the spot was recorded and used to normalize the percent killed, since the percent is a function of the amount of yeast encountered. Twenty newly hatched armyworm larvae were added to the growth spot on the plate, the plate was covered with a lid having five small 0.4 mm openings in the center protected with cotton organdy cloth, and the lid was sealed to the plate with Microseal ‘A’ film (MJ Research, Waltham, Mass.) cut so that a gasket 5-mm wide could seal the edges. The plates were scored for the number of dead armyworms daily after adding the larvae until the assay was ended. Results from days 1 and 2 were of the greatest importance for a commercially viable insecticide. The multiplexed wells having the mutants showing greatest lethality (positions 8, 9, and 10) were selected and the multiplexed wells containing the lycotoxin-1 inserts in pENTR D TOPO corresponding to those positions were transformed into TOP 10 cells, single colonies picked from spread plates, and a plasmid preparation performed. The sequences of 90 AASM variant single isolates picked from the three most lethal multiplexed wells were determined. Forty-five of these had inserts with complete sequences in the correct orientation. Nine were C3, while 36 of them were unique variants and these were selected for the second lethality assay. They were moved into pSUMOduo/TRP via LR clonase, retransformed into INVSc1-XI yeast, and recovered on CM glucose URA/TRP-selective plates. Single colonies with sequence-verified inserts were picked into CM glucose URA/TRP-selective liquid medium, grown, and diluted 10,000-fold. A 100 μl sample was spotted onto CM xylose URA/TRP-selective plates and analyzed for lethality, along with samples containing C3, in quadruplicate, with 20 newly hatched armyworm larvae added to each plate. The variants were scored for dead armyworms and the percent killed was calculated.
Single colonies were picked from the multiplexed wells for the mutation positions showing greatest lethality. Growing yeast spots containing the individual variants were tested for lethality to fall armyworm larvae. Percent dead on day 2 for C3, B9, A6, and C6 were 71, 97, 74, and 100%, respectively (Table 2). The two AASM mutants B9 and C6 were more lethal than the NNR mutant C3. The numbers are normalized for diameter of the colony on the xylose plates. […] Frequency analysis was performed using SAS Proc Freq (SAS Institute 1999) with data adjusted for colony size and assuming a conservative 20-insect sample for each treatment.

[3] = system: INVSc1-XI-Lyt-1 yeast cells; assay: Scanning electron microscopy of yeast strains expressing variants; assay type: cell-based, Saccharomyces cerevisiae; details: INVSc1-XI-Lyt-1 yeast strain expressing the variant
Procedure: Yeast cells from the plate were suspended in saline (0.85% NaCl) and centrifuged to remove the residual medium. Following a modified procedure of Bang and Pazirandeh [Bang and Pazirandeh. Physical properties and heavy metal uptake of encapsulated Escherichia coli expressing a metal binding gene (NCP). J. Microencapsul. 1999; 16(4): 489-499], the cell pellet was suspended and fixed in 2.5% glutaraldehyde prepared in 100 mM cacodylate buffer, pH 7.2, for 1 h on ice. To remove remaining glutaraldehyde, the cells were rinsed with the buffer twice and then with distilled water once, allowing several minutes for each step. The cells were dehydrated in solutions containing 50, 70, 80 and 100% ethanol successively for 15 min for each treatment. Cells were mounted on the aluminum stub and placed in the desiccator to dry overnight or until needed. The samples were subjected to scanning electron microscopy and analysis (Zeiss Supra 40 VP).

[4] = system: transformed host cell; assay: Expression of variant peptide in transformed host cell (membrane crossing, intracellular membranes); assay type: cell-based; details: expression in a transformed host cell

Sequence	lethality to armyworms in initial screening [1]	relative mortality compared with mutants C3 and A6 (frequency analysis) [2]	state of armyworms on plates containing cultures expressing variants [2]	Day 1 (% killed) [2]	Day 2 (% killed) [2]	Day 2 (% killed) ([2]; listed as XI Lyt-1 B9)	cell surface morphology in scanning electron micrographs [3]	mortality compared pairwise (C6 vs B9; A6 vs C3), frequency analysis [2]	Day 2 (% killed) ([2]; listed as XI Lyt-1 C6)	build-up of intracellular membranes (tubules) on expression [4]	Day 2 (% killed) ([2]; listed as XI Lyt-1 A6)
IWLTALKFLGKHAAKHLAKQQLSKL [wild-type lycotoxin-1]	not found to be lethal										
IWLTALKFLQKHAAKHLAKHSLSPW (Completely synthesized from synthetic oligonucleotides) [B9, lycotoxin-1 variant with mutations G10Q, Q20H, Q21S, K24P, L25W]		significantly greater than mortality caused by mutants C3 and A6	much smaller and mostly or all dead	0.0%	97%	97.2%	numerous bulges and irregularities on the surface				
IWLTALKFSGKHAAKHLAKQQLSPW (Completely synthesized from synthetic oligonucleotides) [C6, lycotoxin-1 variant with mutations L9S, K24P, L25W]		significantly greater than mortality caused by mutants C3 and A6	much smaller and mostly or all dead	3.7%	100%		numerous bulges and irregularities on the surface	not significantly different	100.0%	significant build-up of intracellular membranes	
IWLTALKHLGKHAAKHLAKQQLSPW (Completely synthesized from synthetic oligonucleotides) [A6, lycotoxin-1 variant with mutations F8H, K24P, L25W]			much smaller and mostly or all dead	13.2%	74%		numerous bulges and irregularities on the surface	not significantly different			74.1%
